Reference: ChEMBL document CHEMBL6103656, “Discovery of BT-114143, a Novel and Potent Phosphoric Acid-Containing Small-Molecule Plasminogen Activation Inhibitor for Hyperfibrinolysis” (J Med Chem, 2025)
Each block holds one molecule with its values, some of them ahead of it. The source made the active and inactive calls. The calls are words filed in the database; no cut-off is given here.

Legend:
Blood = test: Ratio of compound IC50 to TXA IC50 in anti-fibrinolytic activity in healthy human fresh blood by plasma clot lysis; format: functional
Plasminogen [1] = target: T1, Plasminogen (Homo sapiens, UniProt P00747); test: Inhibition of plasminogen activation assessed as inhibition of recombinant human tissue plasminogen activator (rt-PA)-induced clot lysis measured after clot lysis pre-incubated for 15 mins by buffer clot lysis assay
[2] = target: Tissue-type plasminogen activator (Homo sapiens) (UniProt P00750); test: Inhibition of recombinant human tissue plasminogen activator (rt-PA)-induced fibrinolysis in human fresh whole blood assessed as thrombus dissolution within 30 mins after reaching maximum amplitude (LY30) by thromboelastography analysis; format: functional, tissue-based
Plasminogen [3] = target: T1, Plasminogen; test: Binding affinity to biotinylated Plasminogen (unknown origin) assessed as dissociation constant by surface plasmon resonance (SPR) analysis
[4] = (§1) Inhibition of Plasminogen (unknown origin) binding to fibrin (unknown origin) interaction by surface plasmon resonance (SPR) analysis; set-up: species or system Homo sapiens
Homo sapiens = organism: Homo sapiens; test: as §1
[5] = Half life in Sprague-Dawley rat at 2 mg/kg, iv measured upto 24 hrs by LC-MS/MS analysis; format: ADME, organism-based; details: in vivo
[6] = Half life in beagle dog at 2 mg/kg, iv measured upto 24 hrs by LC-MS/MS analysis; format: ADME, organism-based, Canis lupus familiaris; details: in vivo
[7] = Half life in Sprague-Dawley rat at 2 mg/kg, IM measured upto 24 hrs by LC-MS/MS analysis; format: ADME, organism-based; details: in vivo
[8] = Half life in beagle dog at 2 mg/kg, IM measured upto 24 hrs by LC-MS/MS analysis; format: ADME, organism-based, Canis lupus familiaris; details: in vivo
[9] = AUC (0 to infinity) in Sprague-Dawley rat at 2 mg/kg, iv measured upto 24 hrs by LC-MS/MS analysis; format: ADME, organism-based; details: in vivo
[10] = AUC (0 to infinity) in beagle dog at 2 mg/kg, iv measured upto 24 hrs by LC-MS/MS analysis; format: ADME, organism-based, Canis lupus familiaris; details: in vivo
[11] = AUC (0 to infinity) in Sprague-Dawley rat at 2 mg/kg, IM measured upto 24 hrs by LC-MS/MS analysis; format: ADME, organism-based; details: in vivo
[12] = AUC (0 to infinity) in beagle dog at 2 mg/kg, IM measured upto 24 hrs by LC-MS/MS analysis; format: ADME, organism-based, Canis lupus familiaris; details: in vivo
[13] = Volume of distribution at steady state in Sprague-Dawley rat at 2 mg/kg, iv measured upto 24 hrs by LC-MS/MS analysis; format: ADME, organism-based; details: in vivo, read-out: Vdss
[14] = Volume of distribution at steady state in beagle dog at 2 mg/kg, iv measured upto 24 hrs by LC-MS/MS analysis; format: ADME, organism-based, Canis lupus familiaris; details: in vivo
[15] = Clearance in Sprague-Dawley rat at 2 mg/kg, iv measured upto 24 hrs by LC-MS/MS analysis; format: ADME, organism-based; details: in vivo
Rattus norvegicus [16] = test: Hemostatic effect in rt-PA enhanced Sprague-Dawley rat tail bleeding model assessed as reduction in tail bleeding time at 5 mg/kg infused into right jugular vein; format: functional, organism-based; details: route iv
Rattus norvegicus [17] = test: Hemostatic effect in rt-PA enhanced Sprague-Dawley rat tail bleeding model assessed as reduction in tail bleeding time at 40 mg/kg infused into right jugular vein; format: functional, organism-based; details: route iv
[18] = target: Tissue-type plasminogen activator (Rattus norvegicus) (UniProt P19637); test: Inhibition of recombinant tissue plasminogen activator (rt-PA)-induced fibrinolysis in Sprague-Dawley rat fresh whole blood assessed as thrombus dissolution within 30 mins after reaching maximum amplitude (LY30) at > 3 uM by thromboelastography analysis; format: functional, tissue-based
[19] = target: Voltage-gated inwardly rectifying potassium channel KCNH2 (Homo sapiens, UniProt Q12809); test: Inhibition of hERG; format: toxicity
[20] = target: T2, GABA-A receptor; alpha-1/beta-2/gamma-2 (Homo sapiens, UniProt P14867+P18507+P47870); test: Inhibition of GABA-A receptor alpha1beta2gamma2 (unknown origin); format: toxicity
T2 sequence (P14867 whole entry): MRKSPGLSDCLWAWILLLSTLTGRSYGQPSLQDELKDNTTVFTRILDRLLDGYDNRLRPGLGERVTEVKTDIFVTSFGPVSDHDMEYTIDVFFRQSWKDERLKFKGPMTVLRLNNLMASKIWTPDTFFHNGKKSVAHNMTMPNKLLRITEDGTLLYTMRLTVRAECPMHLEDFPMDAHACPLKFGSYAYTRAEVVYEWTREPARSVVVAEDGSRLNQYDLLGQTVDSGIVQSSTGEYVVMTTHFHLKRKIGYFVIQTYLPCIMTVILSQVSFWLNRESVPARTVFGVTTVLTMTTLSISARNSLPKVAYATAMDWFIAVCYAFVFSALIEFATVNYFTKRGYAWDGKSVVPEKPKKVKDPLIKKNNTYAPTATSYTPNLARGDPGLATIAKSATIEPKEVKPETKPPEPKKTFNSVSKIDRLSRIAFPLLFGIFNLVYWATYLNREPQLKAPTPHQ
T2 sequence (P47870 whole entry): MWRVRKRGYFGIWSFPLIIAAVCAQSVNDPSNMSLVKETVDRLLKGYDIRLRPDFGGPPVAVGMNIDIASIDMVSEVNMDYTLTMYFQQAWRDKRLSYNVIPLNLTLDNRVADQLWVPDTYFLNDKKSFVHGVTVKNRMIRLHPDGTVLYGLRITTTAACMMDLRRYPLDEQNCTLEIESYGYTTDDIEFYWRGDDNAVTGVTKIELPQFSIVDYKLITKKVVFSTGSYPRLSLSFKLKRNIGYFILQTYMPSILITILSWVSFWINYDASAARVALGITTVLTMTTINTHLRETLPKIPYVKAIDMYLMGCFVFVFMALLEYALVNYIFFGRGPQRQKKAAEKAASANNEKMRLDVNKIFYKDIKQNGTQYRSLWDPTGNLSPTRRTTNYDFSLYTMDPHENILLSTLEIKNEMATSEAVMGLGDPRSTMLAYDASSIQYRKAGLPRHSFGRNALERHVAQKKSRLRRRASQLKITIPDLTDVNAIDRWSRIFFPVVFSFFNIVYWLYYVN
T2 sequence (P18507 whole entry): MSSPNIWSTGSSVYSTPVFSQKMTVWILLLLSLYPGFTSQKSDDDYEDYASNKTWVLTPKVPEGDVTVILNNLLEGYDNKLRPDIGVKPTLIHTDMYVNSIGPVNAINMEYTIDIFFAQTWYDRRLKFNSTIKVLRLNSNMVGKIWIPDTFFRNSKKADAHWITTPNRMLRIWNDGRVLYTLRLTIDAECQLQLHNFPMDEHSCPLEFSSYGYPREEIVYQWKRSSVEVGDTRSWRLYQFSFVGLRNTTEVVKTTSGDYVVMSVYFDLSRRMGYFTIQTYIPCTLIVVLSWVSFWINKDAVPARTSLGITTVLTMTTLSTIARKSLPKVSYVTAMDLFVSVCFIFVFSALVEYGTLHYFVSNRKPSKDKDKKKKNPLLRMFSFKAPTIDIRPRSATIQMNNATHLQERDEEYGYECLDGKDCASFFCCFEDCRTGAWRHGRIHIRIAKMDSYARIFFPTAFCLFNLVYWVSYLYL

[21] = target: Glycine receptor (alpha-1/beta) (Homo sapiens, UniProt P23415+P48167); test: Inhibition of glycine receptor alpha1beta (unknown origin); format: toxicity
[22] = Maximum tolerated dose in Sprague-Dawley rat treated intravenously twice a day; format: toxicity, organism-based; details: in vivo, route iv
[23] = Maximum tolerated dose in beagle dog treated intravenously twice a day; format: toxicity, organism-based, Canis lupus familiaris; details: in vivo, route iv
[24] = Toxicity in Sprague-Dawley rat assessed as no observed adverse effect level (NOAEL) treated for 14 days; details: in vivo, time 14 day
[25] = Toxicity in beagle dog assessed as no observed adverse effect level (NOAEL) treated for 14 days; set-up: species or system Canis lupus familiaris; details: in vivo, time 14 day
[26] = Toxicity in CHO cells assessed as mutagenic effect by chromosome aberration test; format: cell-based, Cricetulus griseus; details: chinese hamster
[27] = Toxicity in rat peripheral blood cells assessed as clastogenic effect by micronucleus test; format: cell-based; details: erythrocyte
[28] = Half life in Sprague-Dawley rat at 1 mg/kg, iv measured upto 24 hrs by LC-MS/MS analysis; format: ADME, organism-based; details: in vivo
[29] = Half life in beagle dog at 1 mg/kg, iv measured upto 24 hrs by LC-MS/MS analysis; format: ADME, organism-based, Canis lupus familiaris; details: in vivo
[30] = AUC (0 to infinity) in Sprague-Dawley rat at 1 mg/kg, iv measured upto 24 hrs by LC-MS/MS analysis; format: ADME, organism-based; details: in vivo
[31] = AUC (0 to infinity) in beagle dog at 1 mg/kg, iv measured upto 24 hrs by LC-MS/MS analysis; format: ADME, organism-based, Canis lupus familiaris; details: in vivo
[32] = Volume of distribution at steady state in Sprague-Dawley rat at 1 mg/kg, iv measured upto 24 hrs by LC-MS/MS analysis; format: ADME, organism-based; details: in vivo, read-out: Vdss
[33] = Volume of distribution at steady state in beagle dog at 1 mg/kg, iv measured upto 24 hrs by LC-MS/MS analysis; format: ADME, organism-based, Canis lupus familiaris; details: in vivo, read-out: Vdss
[34] = Clearance in Sprague-Dawley rat at 1 mg/kg, iv measured upto 24 hrs by LC-MS/MS analysis; format: ADME, organism-based; details: in vivo
[35] = Clearance in beagle dog at 1 mg/kg, iv measured upto 24 hrs by LC-MS/MS analysis; format: ADME, organism-based, Canis lupus familiaris; details: in vivo

Chain of Tissue-type plasminogen activator (Rattus norvegicus) (P19637 whole entry): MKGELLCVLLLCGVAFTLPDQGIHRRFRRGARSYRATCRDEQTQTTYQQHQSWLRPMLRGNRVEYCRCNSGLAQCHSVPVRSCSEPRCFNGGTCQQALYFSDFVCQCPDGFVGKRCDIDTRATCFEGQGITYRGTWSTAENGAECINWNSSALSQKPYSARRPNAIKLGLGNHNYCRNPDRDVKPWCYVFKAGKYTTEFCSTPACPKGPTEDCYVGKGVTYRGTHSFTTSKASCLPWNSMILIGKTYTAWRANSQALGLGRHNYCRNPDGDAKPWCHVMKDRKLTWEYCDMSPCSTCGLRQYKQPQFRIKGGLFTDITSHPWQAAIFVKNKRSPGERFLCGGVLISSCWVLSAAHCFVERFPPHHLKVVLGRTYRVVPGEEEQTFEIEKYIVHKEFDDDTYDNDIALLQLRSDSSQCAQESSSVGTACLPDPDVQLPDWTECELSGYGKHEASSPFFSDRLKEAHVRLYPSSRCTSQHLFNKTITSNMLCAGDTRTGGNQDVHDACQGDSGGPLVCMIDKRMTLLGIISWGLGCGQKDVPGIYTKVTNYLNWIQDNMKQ
Chain of Tissue-type plasminogen activator (Homo sapiens) (P00750 36-562 limits assumed): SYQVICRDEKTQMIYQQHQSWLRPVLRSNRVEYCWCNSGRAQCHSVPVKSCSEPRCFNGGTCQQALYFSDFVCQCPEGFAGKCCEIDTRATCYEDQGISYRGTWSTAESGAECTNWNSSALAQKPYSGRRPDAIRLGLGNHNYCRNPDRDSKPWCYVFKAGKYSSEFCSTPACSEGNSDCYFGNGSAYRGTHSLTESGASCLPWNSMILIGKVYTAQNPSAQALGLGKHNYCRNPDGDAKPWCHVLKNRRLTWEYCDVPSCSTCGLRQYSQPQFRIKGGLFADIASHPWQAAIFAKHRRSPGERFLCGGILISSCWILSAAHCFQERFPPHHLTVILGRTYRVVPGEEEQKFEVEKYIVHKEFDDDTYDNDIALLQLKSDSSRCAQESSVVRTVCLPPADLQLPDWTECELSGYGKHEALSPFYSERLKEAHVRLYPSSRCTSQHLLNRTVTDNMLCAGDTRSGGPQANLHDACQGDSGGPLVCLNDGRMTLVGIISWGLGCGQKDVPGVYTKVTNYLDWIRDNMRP
T1 sequence (P00747 97-580 limits assumed): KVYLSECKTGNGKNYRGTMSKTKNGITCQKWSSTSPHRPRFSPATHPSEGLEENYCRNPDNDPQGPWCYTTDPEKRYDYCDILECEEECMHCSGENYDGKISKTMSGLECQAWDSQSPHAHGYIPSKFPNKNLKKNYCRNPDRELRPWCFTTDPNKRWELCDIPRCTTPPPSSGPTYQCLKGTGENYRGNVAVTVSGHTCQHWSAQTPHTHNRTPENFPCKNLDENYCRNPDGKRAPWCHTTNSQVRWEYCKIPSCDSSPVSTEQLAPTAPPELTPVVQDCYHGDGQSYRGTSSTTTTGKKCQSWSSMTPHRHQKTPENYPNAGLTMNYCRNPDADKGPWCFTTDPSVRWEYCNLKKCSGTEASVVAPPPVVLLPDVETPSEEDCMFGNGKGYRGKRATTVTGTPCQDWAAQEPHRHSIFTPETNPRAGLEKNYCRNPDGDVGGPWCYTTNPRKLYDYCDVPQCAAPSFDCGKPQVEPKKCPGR
T1 sequence (P00747 581-810 limits assumed): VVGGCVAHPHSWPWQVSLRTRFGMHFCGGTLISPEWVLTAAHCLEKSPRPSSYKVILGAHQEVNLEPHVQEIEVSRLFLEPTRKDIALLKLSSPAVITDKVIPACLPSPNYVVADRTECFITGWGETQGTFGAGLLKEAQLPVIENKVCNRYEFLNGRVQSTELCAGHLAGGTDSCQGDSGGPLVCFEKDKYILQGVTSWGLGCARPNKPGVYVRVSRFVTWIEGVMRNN
Chain of Voltage-gated inwardly rectifying potassium channel KCNH2 (Q12809 whole entry): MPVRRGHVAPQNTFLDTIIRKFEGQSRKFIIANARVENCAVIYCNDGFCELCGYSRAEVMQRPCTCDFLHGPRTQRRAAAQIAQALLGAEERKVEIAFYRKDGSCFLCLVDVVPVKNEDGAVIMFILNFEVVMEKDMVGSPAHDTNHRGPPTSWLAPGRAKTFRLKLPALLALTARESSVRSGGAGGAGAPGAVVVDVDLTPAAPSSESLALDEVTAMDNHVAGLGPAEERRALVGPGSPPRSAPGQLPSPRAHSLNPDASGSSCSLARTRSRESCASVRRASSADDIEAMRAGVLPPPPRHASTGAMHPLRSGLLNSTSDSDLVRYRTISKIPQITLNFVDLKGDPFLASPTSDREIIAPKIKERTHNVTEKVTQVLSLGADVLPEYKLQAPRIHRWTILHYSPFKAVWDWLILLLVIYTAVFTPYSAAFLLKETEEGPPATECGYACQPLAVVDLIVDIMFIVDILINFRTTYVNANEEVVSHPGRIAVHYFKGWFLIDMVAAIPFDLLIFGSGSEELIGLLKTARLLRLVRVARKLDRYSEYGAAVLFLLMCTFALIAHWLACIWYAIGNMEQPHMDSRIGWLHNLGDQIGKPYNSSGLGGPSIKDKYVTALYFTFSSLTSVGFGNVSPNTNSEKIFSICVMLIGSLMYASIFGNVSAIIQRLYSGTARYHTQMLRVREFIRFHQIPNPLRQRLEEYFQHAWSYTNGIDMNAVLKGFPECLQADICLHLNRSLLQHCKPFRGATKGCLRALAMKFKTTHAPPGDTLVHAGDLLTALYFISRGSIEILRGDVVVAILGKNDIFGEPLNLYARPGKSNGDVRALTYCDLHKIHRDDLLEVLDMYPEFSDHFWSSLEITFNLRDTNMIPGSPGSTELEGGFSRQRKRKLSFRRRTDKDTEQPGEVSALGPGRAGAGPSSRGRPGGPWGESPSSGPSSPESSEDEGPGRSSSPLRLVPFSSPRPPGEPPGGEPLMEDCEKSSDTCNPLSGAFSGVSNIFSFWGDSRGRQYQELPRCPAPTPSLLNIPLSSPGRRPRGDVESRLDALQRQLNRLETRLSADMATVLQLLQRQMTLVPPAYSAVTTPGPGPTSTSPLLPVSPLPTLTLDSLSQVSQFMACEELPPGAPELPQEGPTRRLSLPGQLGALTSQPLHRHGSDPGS
Chain of Glycine receptor (alpha-1/beta) (P23415 whole entry): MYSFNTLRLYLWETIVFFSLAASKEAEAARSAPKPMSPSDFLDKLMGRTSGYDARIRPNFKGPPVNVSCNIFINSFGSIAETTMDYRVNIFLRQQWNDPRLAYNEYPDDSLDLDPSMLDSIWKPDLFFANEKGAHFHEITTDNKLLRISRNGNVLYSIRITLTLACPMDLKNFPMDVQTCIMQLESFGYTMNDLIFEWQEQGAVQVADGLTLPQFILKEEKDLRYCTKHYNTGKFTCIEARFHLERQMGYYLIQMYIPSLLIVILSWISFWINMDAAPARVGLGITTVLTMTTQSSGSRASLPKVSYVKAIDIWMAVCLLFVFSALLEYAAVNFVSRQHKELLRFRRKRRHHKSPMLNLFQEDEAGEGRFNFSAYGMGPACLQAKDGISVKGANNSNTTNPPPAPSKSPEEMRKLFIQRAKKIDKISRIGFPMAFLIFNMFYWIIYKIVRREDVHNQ
Chain of Glycine receptor (alpha-1/beta) (P48167 whole entry): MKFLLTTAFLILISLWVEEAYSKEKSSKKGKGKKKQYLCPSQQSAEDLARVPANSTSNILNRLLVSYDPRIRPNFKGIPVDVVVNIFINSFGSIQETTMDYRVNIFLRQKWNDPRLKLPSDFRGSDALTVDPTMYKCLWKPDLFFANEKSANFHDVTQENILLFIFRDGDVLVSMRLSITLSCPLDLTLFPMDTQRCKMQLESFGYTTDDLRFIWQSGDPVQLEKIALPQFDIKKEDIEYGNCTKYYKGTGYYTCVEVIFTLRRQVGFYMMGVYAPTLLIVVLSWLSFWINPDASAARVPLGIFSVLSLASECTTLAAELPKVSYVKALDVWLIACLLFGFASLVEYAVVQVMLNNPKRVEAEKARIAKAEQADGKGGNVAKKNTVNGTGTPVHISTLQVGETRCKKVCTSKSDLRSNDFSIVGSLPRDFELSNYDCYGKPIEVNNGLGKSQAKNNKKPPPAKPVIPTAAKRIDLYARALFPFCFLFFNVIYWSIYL

SMILES: Cl.O=P(O)(O)c1ccc2c(n1)CCNC2
- Ratio IC50 (Blood): 0.19
- IC50 (Plasminogen [1]): 8.42 µM
- IC90 [2]: 1.01 µM
- Kd (Plasminogen [3]): 21.1 µM
- IC50 [4]: 1.48 µM
- IC90 (Homo sapiens): 4.71 µM
- half-life [5]: 152 min
- t1/2 [6]: 11.1 h
- half-life [7]: 145 min
- half-life [8]: 768 min
- AUC(0-inf) [9]: 11600 ng·h/mL
- AUC [10]: 16600 ng·h/mL
- AUC(0-inf) [11]: 14200 ng·h/mL
- AUC(0-inf) [12]: 16500 ng·h/mL
- Vd [13]: 0.473 L/kg
- Vdss [14]: 0.96 L/kg
- clearance [15]: 2.64 mL/min/kg
- Activity (Rattus norvegicus [16]): Active
- Activity (Rattus norvegicus [17]): Active
- inhibition [18]: Active
- IC50 [19]: > 300 µM
- IC50 [20]: 782 µM
- IC50 [21]: 540 µM
- MTD [22]: > 500 mg/kg
- MTD [23]: > 500 mg/kg
- NOAEL at 336 h [24]: 60 mg/kg
- NOAEL at 336 h [25]: 70 mg/kg
- Activity [26]: Non-toxic
- Activity [27]: Non-toxic

SMILES: Cl.O=P(O)(O)c1ccc2c(n1)C(N1CC[S+]([O-])CC1)CNC2 (mixture of isomers)
- Ratio IC50 (Blood): 0.17

SMILES: Cl.O=C(O)c1nc2c(s1)CNCC2
- Ratio IC50 (Blood): 0.94

- IC90 [2]: 10.1 µM
- IC50 [4]: 5.33 µM
- IC90 (Homo sapiens): 78.7 µM
- half-life [28]: 76.8 min
- half-life [29]: 320 min
- AUC(0-inf) [30]: 2820 ng·h/mL
- AUC(0-inf) [31]: 6680 ng·h/mL
- Vd [32]: 0.296 L/kg
- Vd [33]: 0.587 L/kg
- clearance [34]: 5.78 mL/min/kg
- clearance [35]: 2.46 mL/min/kg
- inhibition [18]: Active
SMILES: NC[C@H]1CC[C@H](C(=O)O)CC1 [TRANEXAMIC ACID]
- Activity (Rattus norvegicus [16]): Active
- Activity (Rattus norvegicus [17]): Active

SMILES: Cl.O=c1[nH]c(-c2ccc3c(n2)CCNC3)no1
- Ratio IC50 (Blood): 0.86

SMILES: CC(C)CCC1Cc2nc(P(=O)(O)O)ccc2CN1.Cl (mixture of isomers)
- Ratio IC50 (Blood): 0.09

SMILES: Cl.O=C(O)c1cc2c(s1)CNCC2
- Ratio IC50 (Blood): 1.36

SMILES: NCCCCCC(=O)O
- Activity (Rattus norvegicus [16]): inactive

SMILES: Cl.O=C(O)c1ccc2c(n1)CCNC2
- Ratio IC50 (Blood): 0.25

SMILES: CC(C)(C)CC1Cc2nc(P(=O)(O)O)ccc2CN1.Cl (mixture of isomers)
- Ratio IC50 (Blood): 0.19

SMILES: Cl.O=C(O)c1ccc2c(c1)CCNC2
- Ratio IC50 (Blood): 0.63

SMILES: Cl.NS(=O)(=O)c1ccc2c(n1)CCNC2
- Ratio IC50 (Blood): 4.26

SMILES: Cl.O=C(O)c1nc2c(s1)CCNC2
- Ratio IC50 (Blood): >10

SMILES: CN(C)S(=O)(=O)NC(=O)c1ccc2c(n1)CCNC2.Cl
- Ratio IC50 (Blood): 0.99

SMILES: CC(C)(C)CCC1Cc2nc(P(=O)(O)O)ccc2CN1.Cl (mixture of isomers)
- Ratio IC50 (Blood): 0.1

SMILES: Cl.O=P(O)(O)c1ccc2c(n1)CC(CCc1ccccc1)NC2 (mixture of isomers)
- Ratio IC50 (Blood): 0.2

SMILES: Cl.O=P(O)(O)c1ccc2c(n1)C(N1CCS(=O)(=O)CC1)CNC2 (mixture of isomers)
- Ratio IC50 (Blood): 0.25

SMILES: CS(=O)(=O)NC(=O)c1ccc2c(n1)CCNC2.Cl
- Ratio IC50 (Blood): 2.06
